For data set [1], the target named is T1, human muscarinic receptor subtype 1 (M1) (Homo sapiens, UniProt P11229).
T1 sequence (P11229 1-460): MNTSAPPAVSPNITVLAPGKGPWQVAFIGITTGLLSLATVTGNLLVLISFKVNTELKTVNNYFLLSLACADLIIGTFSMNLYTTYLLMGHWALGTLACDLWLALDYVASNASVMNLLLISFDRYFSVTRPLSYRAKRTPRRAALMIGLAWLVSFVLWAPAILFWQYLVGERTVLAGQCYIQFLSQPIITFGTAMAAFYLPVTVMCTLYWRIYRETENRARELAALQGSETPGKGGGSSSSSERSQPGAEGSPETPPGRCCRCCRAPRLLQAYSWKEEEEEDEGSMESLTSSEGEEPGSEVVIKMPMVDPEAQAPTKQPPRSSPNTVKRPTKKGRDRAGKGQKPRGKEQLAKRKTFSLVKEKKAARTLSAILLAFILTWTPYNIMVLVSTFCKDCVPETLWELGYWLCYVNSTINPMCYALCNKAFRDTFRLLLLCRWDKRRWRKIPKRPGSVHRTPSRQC
As to the kind of experiment: Calcium mobilization assay in hM1-CHO cells, PAM activity with EC20 acetylcholine. The following applies: for EC50: read-out: hM1 pEC50 ± SEM (converted). The format is cell-based. Here is the method:
page 2: Procedures for Biological Experiments Calcium mobilization assays: To measure the functional activity of positive allosteric modulator (PAM) compounds in a cellular assay, human or rat muscarinic receptor subtype 1 (M1) was stably expressed in the Chinese hamster ovary (CHO) cells to evoke an increase in intracellular calcium to an EC20 concentration of acetylcholine (ACh) agonist. The stable M1-CHO cells were cultured in F12 medium containing 10% fetal bovine serum, 20 mM HEPES, 100 units/mL antibiotics/antimycotic, 0.5 mg/ml G418. All reagents used were from Life Technologies (Carlsbad, CA) unless otherwise noted. Briefly, the day before the assay, stable M1-CHO cells (15,000 cells/20 μL/well) were plated in black-walled, clear-bottomed, 384 well plates (Greiner Bio-One, Monroe, NC) in the culture medium without G418, and then incubated overnight at 37 °C in the presence of 5% CO2. The next day, calcium assay buffer (Hank’s balanced salt solution (HBSS), 20 mM HEPES, 2.5 mM Probenecid, 4.16 mM sodium bicarbonate (Sigma-Aldrich, St. Louis, MO) was prepared to dilute […] calcium indicator dye. […] curves in DMSO using the Bravo Liquid Handler (Agilent, Santa Clara, CA), transferred to a 384 well daughter plates using an Echo acoustic liquid handler (Beckman Coulter, Indianapolis, Indiana), and diluted in assay Buffer to a 2X final concentration. The agonist plates were prepared using acetylcholine (ACh, Sigma-Aldrich, St. Louis, MO) concentrations for the EC20 and ECMAX responses by diluting in assay buffer to a 5X final concentration. The 2X dye solution (2.3 µM) was prepared by mixing a 2.3 mM Fluo-4-AM stock in DMSO with 10% (w/v) pluronic acid F- 127 in a 1:1 ratio in assay buffer. Using a microplate washer (BioTek, Winooski, VT), cells were washed with assay buffer for 3 times to remove medium. After the final wash, 20 μL of assay buffer remained in the cell plates. Immediately, 20 μL of the 2X dye solution (final 1.15 µM) was added to each well of the cell plate using a Multidrop Combi dispenser (Thermo Fisher, Waltham, MA). After cells were incubated with the dye solutions for 45 min at 37 °C in the presence of 5% CO2, the dye solutions were removed and replaced with assay buffer using a microplate washer, leaving 20 μL of assay buffer in the cell plate. The compound, agonist, and cell plates were placed inside the Functional Drug Screening System uCell (FDSS uCell, Hamamatsu, Japan) to measure the calcium flux. The triple add protocol was used to measure Ca kinetics; Compound, ACh for EC20, and ACh for ECMAX adds in an order. Briefly, after establishment of a fluorescence baseline S2 page 3: for 2 seconds (excitation, 480 nm; emission, 530 nm), first add occurred by adding 20 µL of test compound to the cells, and the response was measured for 140 seconds. This is followed by second add; 10 µL (5X) of an EC20 concentration of ACh agonist was added to the cells, and the response of the cells was measured for 125 seconds. Immediately, the third add occurred by adding 12 ul assay buffer or 5X of an EC max concentration of ACh and the response of the cells was measured for 90 seconds. Assay buffer was added to the wells that incubated with compounds followed by EC20 concentration of ACh. Agonists containing ECmax concentration of ACh were added to the wells that incubated with DMSO and assay buffer from the 1st and 2nd adds to measure maximum Ca responses (ECmax). Calcium fluorescence was recorded as fold over basal fluorescence and raw data were normalized to the maximal response to ACh agonist. […]

Data set [2] can be described thus: Brain to plasma ratio (PK/PBL cassette). The format is in vivo. The conditions noted are these: rat. As for the experimental part: In vivo DMPK experimental:
Determination of brain to plasma ratio:
Sample Analysis: Concentrations in plasma and brain homogenates were quantified by liquid chromatography tandem mass spectrometry (LC-MS/MS). Whole brains were homogenized in 3 mL of 70:30 IPA:water in a mini bead beater for 3 min, and centrifuged at 3,500 g for 5 min. 5 uL of the supernatant was diluted in 15 uL of blank plasma for quantification of the analytes. Plasma samples were centrifuged at 3,500 g for 5 min. A standard curve was generated by diluting the analytes DMSO stocks with blank plasma to obtain a final concentration of 10,000 ng/ml followed by a serial dilution down to 0.5 ng/ml. […]
Plasma and brain tissue samples originating from in vivo studies were analyzed by electrospray ionization using an AB Sciex Q-TRAP 5500 (Foster City, CA) that was coupled to a Shimadzu LC-20AD pump (Columbia, MD) and a Leap Technologies CTC PAL auto-sampler (Carrboro, NC). […]
transitioning to 10% B over 0.05 min. […] All data were analyzed using AB Sciex Analyst 1.5.1 software.
Brain plasma concentration ratio (Kp) was calculated by dividing brain concentration by plasma concentration for each animal. Unbound brain to unbound plasma concentration ratio (Kp,uu) is calculated using the following formula: Kp,uu = (Brain ng/g x brain fu)/(plasma ng/ml x plasma fu).

For `Cn1cc(-c2ccc(Cc3cc(C(=O)N[C@H]4CCOC[C@@H]4O)nn3C3CCCC3)cc2)cn1` [17g], in data set [1], the “hM1 %ACh Max ± SEM” value is 82 ± 3.4 %ACh Max and the EC50 is 427 nM. In addition, the Kp in data set [2] worked out at 0.12.
With `Cn1cc(-c2ccc(Cc3cc(C(=O)N[C@H]4CCCC[C@@H]4O)nn3C3CCCC3)cc2)cn1` [17k], in data set [1], the “hM1 %ACh Max ± SEM” value came to 82 ± 4.4 %ACh Max and the EC50 was 589 nM. Further, in data set [2], the Kp turned out to be 0.63.

The Kp is tissue or fluid exposure divided by exposure in the circulation.

The record behind these values is publication PMC12257413, “Discovery of a Novel sp^3‑Rich M1 Positive Allosteric Modulators (PAMs) Chemotype via Scaffold Hopping” (ACS Medicinal Chemistry Letters, 2025).
